According to patent US20210015874A1, “USE OF BIO-TRANSFORMED BEAR BILE POWDER IN PREPARATION OF ANTI-INFLAMMATORY DRUGS” (SHANGHAI KAIBAO PHARMACEUTICAL CO., LTD., priority 2019, published 2021):

Tested on: carrageenan-induced inflammation model
Assay: plantar swelling of carrageenan-induced inflammation model in rats
Format: in vivo, SD rats
Conditions: intragastric once, 0.007 g/kg
Procedure: Animal germline: specific pathogen-free (SPF) male SD rats, aged 6-week-old, weighing between 132 g and 199 g when received, and weighing between 152 g and 225 g when drugs are administered to rats, were purchased from Hunan Slake Jingda laboratory Animal Co., Ltd. The laboratory animal production license: SCXK (Xiang) 2016-0002 (valid until Sep. 29, 2021), issued by China Hunan Provincial Science & Technology Department. The laboratory animal quality certificate No.: 43004700060779.
Method for grouping animals: after the quarantine was over, rats that have passed the quarantine inspection were selected for experiments. Groups were randomly assigned on the basis of body weight and divided into 9 groups with 10 rats per group. The 9 groups were as follows: a negative control group, a model group, a group of rats treated with low-dose bio-transformed bear bile powder, a group of rats treated with middle-dose bio-transformed bear bile powder, a group of rats treated with high-dose bio-transformed bear bile powder, a group of rats treated with low-dose natural bear bile powder, a group of rats treated with middle-dose natural bear bile powder, a group of rats treated with high-dose natural bear bile powder, and a positive control group.
Dose and group design for the experiment: a total of 9 groups are contemplated, that is, negative control group (blank control group), a model group, a group of rats treated with low-dose bio-transformed bear bile powder, a group of rats treated with middle-dose bio-transformed bear bile powder, a group of rats treated with high-dose bio-transformed bear bile powder, a group of rats treated with low-dose natural bear bile powder, a group of rats treated with middle-dose natural bear bile powder, a group of rats treated with high-dose natural bear bile powder, and a positive control group (a group of rats treated with indomethacin).
Administration route, administration frequency, and administration period of the test substance and the control: each of them was administered intragastrically, the administration volume was 10 mL/kg, and each group was administered once.
Experimental method: SD male rats that had passed the quarantine inspection were selected for experiments. Groups were divided into 9 groups with 10 male rats per group. The 9 groups were as follows: a negative control group, a model group, a group of rats treated with low-dose bio-transformed bear bile powder, a group of rats treated with middle-dose bio-transformed bear bile powder, a group of rats treated with high-dose bio-transformed bear bile powder, a group of rats treated with low-dose natural bear bile powder, a group of rats treated with middle-dose natural bear bile powder, a group of rats treated with high-dose natural bear bile powder, and a positive control indomethacin group. Before molding, each animal was scored at the ankle joint of the right hind foot, and the volume of the right hind foot was measured with a plantar volume measuring instrument, and it was measured continuously 2 times, wherein the average value obtained from the two measurements was taken as a base volume.
Except for the blank control group, the animals in the remaining groups were injected with 1% by weight of carrageenan suspension at the right hind foot metatarsal palmar fascia, the volume for each rat was 0.1 mL; animals in the blank control group were injected with an equal volume of normal saline; corresponding drugs were administered intragastrically immediately after an injection of carrageenan. The plantar volume of the right hind foot of each group of animals was measured at 1 h, 2 h, 3 h, 4 h, 5 h, and 6 h after injection, and was measured twice consecutively, and the average value obtained from the two measurements was taken as the plantar volume after modeling. The plantar swelling and the plantar swelling inhibition rate were calculated according to the plantar volume measured at different time points after inflammation was induced. […]

COc1ccc2c(c1)c(CC(=O)O)c(C)n2C(=O)c1ccc(Cl)cc1 [Positive control, indomethacin]
Plantar swelling 1 h (1 h after carrageenan): 0.21 ± 0.14 mL
Plantar swelling 2 h (2 h after carrageenan): 0.25 ± 0.16 mL
Plantar swelling 3 h (3 h after carrageenan): 0.29 ± 0.15 mL
Plantar swelling 4 h (4 h after carrageenan): 0.15 ± 0.12 mL
Plantar swelling 5 h (5 h after carrageenan): 0.19 ± 0.09 mL
Plantar swelling 6 h (6 h after carrageenan): 0.17 ± 0.10 mL
